Results taken from ChEMBL document CHEMBL1201862, “PubChem BioAssay data set” (2004).
The source made the active and inactive calls.

Key:
[1] = target: Endoplasmic reticulum aminopeptidase 1 (Homo sapiens, UniProt Q9NZ08); assay: ERAP1 aminopeptidase inhibitors, dose response, biochemical, cherry-pick, set 2, plate reader (AID 743314)
Prothrombin = Prothrombin (Homo sapiens, UniProt P00734); assay: Thrombin 1536 HTS Dose Response Confirmation. [Related pubchem assays: 1046 (Thrombin 1536 HTS; hits were confirmed in this assay)]; assay type: functional
[2] = HEK293T cytotoxicity, dose response, cytotoxicity control for miR-122 modulator project, cell-based, inhibitor set, cherry-pick, set 2 (AID 720697); assay type: functional
Beta-galactosidase = Beta-galactosidase (Escherichia coli, UniProt Q8VNN2); assay: Dose response counterscreen for EBI2 assay utilizing the enzyme, b-galactosidase.; assay type: functional
Beta-galactosidase, sequence (Q8VNN2 whole entry): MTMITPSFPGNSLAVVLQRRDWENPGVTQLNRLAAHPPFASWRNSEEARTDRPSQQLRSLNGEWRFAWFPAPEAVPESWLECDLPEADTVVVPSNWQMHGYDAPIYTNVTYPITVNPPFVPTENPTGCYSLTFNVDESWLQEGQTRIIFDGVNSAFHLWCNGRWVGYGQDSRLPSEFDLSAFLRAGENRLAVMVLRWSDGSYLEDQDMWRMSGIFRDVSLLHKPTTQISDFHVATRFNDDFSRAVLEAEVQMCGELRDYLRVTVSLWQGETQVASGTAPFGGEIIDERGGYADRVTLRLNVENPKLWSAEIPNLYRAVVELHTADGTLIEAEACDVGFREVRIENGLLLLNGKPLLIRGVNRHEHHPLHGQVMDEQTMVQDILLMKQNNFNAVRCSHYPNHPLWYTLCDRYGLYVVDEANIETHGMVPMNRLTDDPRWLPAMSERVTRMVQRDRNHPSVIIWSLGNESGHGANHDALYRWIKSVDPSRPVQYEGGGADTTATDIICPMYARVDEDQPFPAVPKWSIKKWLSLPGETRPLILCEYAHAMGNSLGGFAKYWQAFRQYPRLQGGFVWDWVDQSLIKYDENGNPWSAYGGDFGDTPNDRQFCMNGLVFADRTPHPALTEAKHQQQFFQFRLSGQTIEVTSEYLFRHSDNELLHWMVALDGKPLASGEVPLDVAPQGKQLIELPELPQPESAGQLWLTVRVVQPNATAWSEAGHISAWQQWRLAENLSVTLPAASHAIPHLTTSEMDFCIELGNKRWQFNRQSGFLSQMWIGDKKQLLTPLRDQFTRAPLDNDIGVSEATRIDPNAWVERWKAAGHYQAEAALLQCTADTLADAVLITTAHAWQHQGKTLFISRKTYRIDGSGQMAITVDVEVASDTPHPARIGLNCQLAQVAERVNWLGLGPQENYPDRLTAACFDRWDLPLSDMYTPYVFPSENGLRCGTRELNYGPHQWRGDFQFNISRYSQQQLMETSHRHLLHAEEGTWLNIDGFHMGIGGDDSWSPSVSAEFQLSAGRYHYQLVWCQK

[3] = target: T1, Corticotropin-releasing factor receptor 2/Corticotropin-releasing factor-binding protein (Homo sapiens, UniProt P24387+Q13324); assay: activators of CRF receptor 2 with binding protein – uHTS hits, confirmation (AID 602473); assay type: functional; details: read-out: EC50_Mean
T1 sequence (Q13324 whole entry): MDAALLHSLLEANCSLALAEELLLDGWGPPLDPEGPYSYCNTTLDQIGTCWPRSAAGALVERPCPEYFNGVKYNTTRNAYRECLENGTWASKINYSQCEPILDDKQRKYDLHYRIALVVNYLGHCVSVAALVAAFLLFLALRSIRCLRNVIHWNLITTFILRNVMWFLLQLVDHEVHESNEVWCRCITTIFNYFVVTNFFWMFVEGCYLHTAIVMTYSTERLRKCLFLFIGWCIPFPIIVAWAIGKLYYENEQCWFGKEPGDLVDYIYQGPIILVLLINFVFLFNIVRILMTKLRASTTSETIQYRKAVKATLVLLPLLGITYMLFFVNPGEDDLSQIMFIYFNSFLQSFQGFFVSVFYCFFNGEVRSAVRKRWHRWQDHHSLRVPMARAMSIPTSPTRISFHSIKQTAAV
T1 sequence (P24387 whole entry): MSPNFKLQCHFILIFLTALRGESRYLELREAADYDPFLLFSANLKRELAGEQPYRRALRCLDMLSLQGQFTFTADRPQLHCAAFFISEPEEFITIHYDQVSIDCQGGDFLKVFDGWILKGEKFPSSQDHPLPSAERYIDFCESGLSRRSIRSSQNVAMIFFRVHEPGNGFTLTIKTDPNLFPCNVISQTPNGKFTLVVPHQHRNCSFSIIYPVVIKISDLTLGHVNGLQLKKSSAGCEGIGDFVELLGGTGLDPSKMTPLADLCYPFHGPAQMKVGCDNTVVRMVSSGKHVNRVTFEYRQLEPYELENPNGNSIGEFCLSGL

[4] = target: Mitogen-activated protein kinase 10 (Homo sapiens, UniProt P53779); assay: Dose response biochemical screening assay for inhibitors of c-Jun N-Terminal Kinase 3 (JNK3). [Related pubchem assays: 746 ]
Mitogen-activated protein kinase 10, sequence (P53779 whole entry): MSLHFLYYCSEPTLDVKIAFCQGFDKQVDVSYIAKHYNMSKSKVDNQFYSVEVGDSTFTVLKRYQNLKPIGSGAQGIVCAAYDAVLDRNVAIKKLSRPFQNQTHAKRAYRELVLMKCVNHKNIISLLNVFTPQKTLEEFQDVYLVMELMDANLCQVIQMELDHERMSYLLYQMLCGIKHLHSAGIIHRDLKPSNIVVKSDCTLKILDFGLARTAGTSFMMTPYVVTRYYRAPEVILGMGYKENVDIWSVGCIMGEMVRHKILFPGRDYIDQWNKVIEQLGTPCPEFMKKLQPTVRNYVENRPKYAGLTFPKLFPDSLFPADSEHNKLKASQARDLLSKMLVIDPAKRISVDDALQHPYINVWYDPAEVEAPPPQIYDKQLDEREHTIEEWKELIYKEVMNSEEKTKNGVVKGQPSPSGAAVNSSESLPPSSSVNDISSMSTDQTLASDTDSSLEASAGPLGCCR

Streptokinase A = target: T2, Streptokinase A (Streptococcus pyogenes serotype M1, UniProt P10520); assay: S. pyogenes streptokinase expression inhibitors, potency, dose response, plasminogen activation absorbance, OD405 (AID 1914); assay type: functional, Streptococcus pyogenes M1 GAS;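 note: secreted streptokinase activity via plasminogen activation per viability signal from cell pellet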
T2 sequence (P10520 whole entry): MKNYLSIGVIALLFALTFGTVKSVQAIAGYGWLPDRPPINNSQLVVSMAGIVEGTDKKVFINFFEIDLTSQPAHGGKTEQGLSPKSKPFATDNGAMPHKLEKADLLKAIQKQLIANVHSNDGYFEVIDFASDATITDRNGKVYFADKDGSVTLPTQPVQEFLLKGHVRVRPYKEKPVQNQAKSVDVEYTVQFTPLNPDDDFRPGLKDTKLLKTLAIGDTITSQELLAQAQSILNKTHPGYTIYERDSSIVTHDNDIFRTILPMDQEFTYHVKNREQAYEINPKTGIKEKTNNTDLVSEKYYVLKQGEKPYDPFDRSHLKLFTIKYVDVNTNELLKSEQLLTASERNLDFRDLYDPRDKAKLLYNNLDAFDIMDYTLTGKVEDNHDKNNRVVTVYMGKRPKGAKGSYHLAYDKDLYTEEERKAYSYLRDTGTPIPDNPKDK

[5] = test system: Streptococcus sp. 'group A'; assay: growth inhibition of control SK(-) GAS strain, dose response, counter-screen for streptokinase expression inhibitor project, luminescence, kanamycin, BacTiterGlo, confirmation (AID 1900); assay type: functional, organism-based
Estrogen receptor beta [6] = target: T3, Estrogen receptor beta (Homo sapiens, UniProt Q92731);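 note: recombinant ER-beta bound to coactivator SRC1 peptide in presence of estradiol agonist; inhibitors block coactivator peptide binding and lower the FRET signal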
T3 sequence (Q92731 whole entry): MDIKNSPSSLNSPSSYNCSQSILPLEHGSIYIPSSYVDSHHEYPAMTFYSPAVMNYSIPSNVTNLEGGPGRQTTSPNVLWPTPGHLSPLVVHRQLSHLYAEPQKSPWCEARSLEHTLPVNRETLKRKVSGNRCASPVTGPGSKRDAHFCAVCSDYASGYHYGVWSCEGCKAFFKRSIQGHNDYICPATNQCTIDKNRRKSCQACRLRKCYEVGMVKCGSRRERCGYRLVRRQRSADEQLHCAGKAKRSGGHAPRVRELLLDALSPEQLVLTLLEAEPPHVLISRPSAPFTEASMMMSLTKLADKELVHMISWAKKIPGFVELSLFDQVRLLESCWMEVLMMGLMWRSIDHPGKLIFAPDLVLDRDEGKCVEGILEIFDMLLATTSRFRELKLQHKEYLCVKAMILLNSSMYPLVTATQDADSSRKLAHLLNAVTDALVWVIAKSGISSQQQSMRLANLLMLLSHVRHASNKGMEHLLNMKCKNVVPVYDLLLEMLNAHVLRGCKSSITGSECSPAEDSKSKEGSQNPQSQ

Estrogen receptor beta [7] = target: T3, Estrogen receptor beta; assay: ERβ–SRC-3 coactivator interaction inhibitors, confirmation, orthogonal assay, biochemical, ELISA, streptavidin-HRP readout (AID 1060)
Streptococcus = assay: Group A Streptococcus viability loss, dose response, counter-screen for streptokinase expression inhibitor project, luminescence, BacTiterGlo (AID 1915); assay type: functional, organism-based;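 note: potency for reduction of bacterial viability or growth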
[8] = target: T4, Long-chain-fatty-acid--AMP ligase FadD28 (Mycobacterium tuberculosis, UniProt P9WQ59); assay: Fluorescence polarization aasay to screen for inhibitors that compete for the binding of FadD28 to a bisubstrate Measured in Biochemical System Using Plate Reader - 2147-01_Inhibitor_Dose_CherryPick_Activity.; assay type: functional, Mycobacterium tuberculosis H37Rv
T4 sequence (P9WQ59 whole entry): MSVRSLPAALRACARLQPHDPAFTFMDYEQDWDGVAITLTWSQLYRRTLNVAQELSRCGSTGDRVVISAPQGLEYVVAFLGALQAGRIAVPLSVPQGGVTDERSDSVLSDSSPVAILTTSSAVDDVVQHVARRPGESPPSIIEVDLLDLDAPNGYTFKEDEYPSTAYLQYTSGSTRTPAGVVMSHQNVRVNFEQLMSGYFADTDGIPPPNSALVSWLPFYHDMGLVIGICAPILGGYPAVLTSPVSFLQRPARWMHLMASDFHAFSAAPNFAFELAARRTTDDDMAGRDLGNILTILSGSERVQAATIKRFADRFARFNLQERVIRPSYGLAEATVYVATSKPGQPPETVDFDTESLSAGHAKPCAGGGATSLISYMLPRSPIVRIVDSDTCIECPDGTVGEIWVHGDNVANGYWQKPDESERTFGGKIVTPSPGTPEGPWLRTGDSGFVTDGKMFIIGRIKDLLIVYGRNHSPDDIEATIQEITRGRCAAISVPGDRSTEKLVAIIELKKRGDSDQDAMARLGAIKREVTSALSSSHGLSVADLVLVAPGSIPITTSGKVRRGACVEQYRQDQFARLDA

Nonstructural protein 1 = Nonstructural protein 1 (Influenza A virus, UniProt Q194T2); assay type: functional, Influenza A virus (A/California/07/2009(H1N1))
Nonstructural protein 1, sequence (Q194T2 whole entry): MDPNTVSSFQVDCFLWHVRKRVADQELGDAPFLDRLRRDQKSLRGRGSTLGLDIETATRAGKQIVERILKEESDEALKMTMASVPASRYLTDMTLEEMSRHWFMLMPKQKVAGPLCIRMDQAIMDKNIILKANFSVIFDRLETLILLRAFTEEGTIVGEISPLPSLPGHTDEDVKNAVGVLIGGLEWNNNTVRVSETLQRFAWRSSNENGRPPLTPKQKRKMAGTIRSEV

[9] = target: T5, Histone-lysine N-methyltransferase NSD2 (Homo sapiens, UniProt O96028); assay type: biochemical
T5 sequence (O96028 whole entry): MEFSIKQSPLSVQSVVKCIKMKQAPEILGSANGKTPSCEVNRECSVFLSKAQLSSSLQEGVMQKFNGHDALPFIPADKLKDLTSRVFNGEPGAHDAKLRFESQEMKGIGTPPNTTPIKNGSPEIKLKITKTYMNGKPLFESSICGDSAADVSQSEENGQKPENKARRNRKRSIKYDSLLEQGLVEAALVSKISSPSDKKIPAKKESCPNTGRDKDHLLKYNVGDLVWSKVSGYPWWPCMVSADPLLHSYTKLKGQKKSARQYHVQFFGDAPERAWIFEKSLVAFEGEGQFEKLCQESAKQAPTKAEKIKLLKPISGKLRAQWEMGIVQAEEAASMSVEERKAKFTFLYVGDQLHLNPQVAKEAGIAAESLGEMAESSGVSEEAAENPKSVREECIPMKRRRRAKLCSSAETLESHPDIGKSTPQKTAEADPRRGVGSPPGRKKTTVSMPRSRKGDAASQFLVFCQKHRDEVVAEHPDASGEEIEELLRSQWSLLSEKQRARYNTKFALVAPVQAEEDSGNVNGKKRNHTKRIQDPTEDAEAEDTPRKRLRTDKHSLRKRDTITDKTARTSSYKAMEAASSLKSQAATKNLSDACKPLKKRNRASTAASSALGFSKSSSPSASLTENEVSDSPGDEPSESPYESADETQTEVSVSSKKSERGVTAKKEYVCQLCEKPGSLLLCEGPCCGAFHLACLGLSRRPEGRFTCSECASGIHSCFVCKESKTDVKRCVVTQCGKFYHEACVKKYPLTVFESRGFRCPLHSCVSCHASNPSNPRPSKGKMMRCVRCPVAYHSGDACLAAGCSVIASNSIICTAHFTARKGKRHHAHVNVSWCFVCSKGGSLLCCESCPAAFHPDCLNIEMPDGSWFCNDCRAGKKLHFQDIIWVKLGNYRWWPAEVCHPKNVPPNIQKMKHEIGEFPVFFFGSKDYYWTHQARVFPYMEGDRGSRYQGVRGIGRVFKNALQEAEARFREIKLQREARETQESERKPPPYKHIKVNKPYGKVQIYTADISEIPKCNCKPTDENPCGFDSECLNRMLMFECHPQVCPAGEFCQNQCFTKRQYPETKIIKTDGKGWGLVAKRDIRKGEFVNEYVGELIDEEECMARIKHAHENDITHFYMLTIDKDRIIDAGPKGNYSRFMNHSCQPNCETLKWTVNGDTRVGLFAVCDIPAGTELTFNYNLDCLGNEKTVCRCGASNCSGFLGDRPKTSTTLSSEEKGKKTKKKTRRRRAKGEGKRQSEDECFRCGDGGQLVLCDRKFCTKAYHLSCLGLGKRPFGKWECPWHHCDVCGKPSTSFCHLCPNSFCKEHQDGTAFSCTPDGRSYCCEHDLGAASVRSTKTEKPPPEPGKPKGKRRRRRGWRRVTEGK

[10] = target: T6, Aryl hydrocarbon receptor (Homo sapiens, UniProt P35869); assay: Luminescence-based cell-based high throughput dose response assay for activators of the Aryl Hydrocarbon Receptor (AHR). [Related pubchem assays: 2796 (Primary screen (AHR activators in singlicate)), 2845 (Confirmation screen (AHR activators in triplicate)), 434939 (Counterscreen (PXR activators in triplicate)), 2804 (Summary (AHR activators))]; assay type: ADME
T6 sequence (P35869 whole entry): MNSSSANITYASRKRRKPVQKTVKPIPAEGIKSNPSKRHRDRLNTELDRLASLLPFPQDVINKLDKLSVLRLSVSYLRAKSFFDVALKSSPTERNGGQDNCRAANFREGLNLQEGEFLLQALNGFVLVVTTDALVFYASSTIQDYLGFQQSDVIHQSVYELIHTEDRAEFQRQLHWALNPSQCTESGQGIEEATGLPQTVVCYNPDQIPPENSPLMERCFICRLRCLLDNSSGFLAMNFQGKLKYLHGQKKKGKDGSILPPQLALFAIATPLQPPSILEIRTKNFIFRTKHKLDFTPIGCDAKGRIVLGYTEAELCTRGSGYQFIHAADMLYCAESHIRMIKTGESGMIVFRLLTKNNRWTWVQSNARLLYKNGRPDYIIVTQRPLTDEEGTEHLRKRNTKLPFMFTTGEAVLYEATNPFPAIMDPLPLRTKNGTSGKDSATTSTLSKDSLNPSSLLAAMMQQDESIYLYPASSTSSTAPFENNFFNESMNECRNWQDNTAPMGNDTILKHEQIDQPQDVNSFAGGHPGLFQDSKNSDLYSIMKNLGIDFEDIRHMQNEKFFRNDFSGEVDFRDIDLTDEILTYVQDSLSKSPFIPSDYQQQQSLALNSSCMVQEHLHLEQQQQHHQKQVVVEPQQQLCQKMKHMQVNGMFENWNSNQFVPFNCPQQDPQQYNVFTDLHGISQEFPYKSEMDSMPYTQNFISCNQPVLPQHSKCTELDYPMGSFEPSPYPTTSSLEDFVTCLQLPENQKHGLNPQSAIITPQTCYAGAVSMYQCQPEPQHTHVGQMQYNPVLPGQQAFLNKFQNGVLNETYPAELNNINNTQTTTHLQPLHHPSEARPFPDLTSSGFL

[11] = inhibitors of Vif binding to APOBEC3G peptide, primary screen, biochemical, TR-FRET, GST-Vif 1-94, biotin-A3G peptide, dose response retest (AID 1117319); assay type: functional;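 note: TR-FRET signal of purified GST-Vif binding a biotinylated A3G peptide; inhibitors lower the FRET signal by blocking Vif and A3G binding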

Endoplasmic reticulum aminopeptidase 1, sequence (Q9NZ08 whole entry): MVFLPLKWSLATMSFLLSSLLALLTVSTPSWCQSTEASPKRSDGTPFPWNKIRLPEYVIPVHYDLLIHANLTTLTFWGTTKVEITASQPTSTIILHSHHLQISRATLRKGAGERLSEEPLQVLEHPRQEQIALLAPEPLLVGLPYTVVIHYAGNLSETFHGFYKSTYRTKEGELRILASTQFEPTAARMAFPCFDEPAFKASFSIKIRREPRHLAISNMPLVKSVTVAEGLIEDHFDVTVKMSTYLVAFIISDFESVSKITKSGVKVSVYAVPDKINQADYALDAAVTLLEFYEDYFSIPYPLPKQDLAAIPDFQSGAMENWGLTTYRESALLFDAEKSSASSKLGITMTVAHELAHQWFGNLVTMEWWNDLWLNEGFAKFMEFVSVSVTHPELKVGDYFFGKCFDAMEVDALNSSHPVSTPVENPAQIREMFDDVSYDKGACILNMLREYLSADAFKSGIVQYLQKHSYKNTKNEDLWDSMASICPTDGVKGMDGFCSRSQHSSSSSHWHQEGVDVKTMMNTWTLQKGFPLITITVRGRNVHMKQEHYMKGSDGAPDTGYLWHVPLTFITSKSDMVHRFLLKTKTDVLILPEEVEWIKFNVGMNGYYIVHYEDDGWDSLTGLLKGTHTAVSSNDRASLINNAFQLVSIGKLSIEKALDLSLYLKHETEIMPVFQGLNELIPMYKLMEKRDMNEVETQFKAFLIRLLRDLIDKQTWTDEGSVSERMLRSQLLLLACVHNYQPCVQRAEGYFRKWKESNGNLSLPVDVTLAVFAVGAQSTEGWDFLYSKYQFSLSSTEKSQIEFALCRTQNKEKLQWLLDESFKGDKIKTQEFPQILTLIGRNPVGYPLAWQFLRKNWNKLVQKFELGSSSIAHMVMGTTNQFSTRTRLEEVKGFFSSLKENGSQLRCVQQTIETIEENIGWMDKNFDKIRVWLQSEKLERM

## COc1cccc(CNC(=O)[C@H]2N[C@H]3c4ccc(/C=C/c5ccccc5)c(=O)n4C[C@H]3[C@@H]2CO)c1
[1]
  AC50: 16.2 µM (active)

## O=C(Nc1ccccc1N1CCOCC1)c1ccc2[nH]cnc2c1
Prothrombin
  IC50: 6.87 µM (active)

## C[C@@H]1CN([C@@H](C)CO)S(=O)(=O)c2ccc(C3=CCCCC3)cc2O[C@@H]1CN(C)C(=O)Nc1ccc2c(c1)OCO2
[2]
  AC50: 0.502 µM (active)

## Cc1cc(C)c2cc(C(=O)N3CCC(C(=O)c4ccc(F)cc4)CC3)[nH]c2c1
Beta-galactosidase
  IC50: > 80 µM (inactive)

## O=c1oc2c(CN3CCN(CCO)CC3)c(O)ccc2cc1-c1ccccn1
[3]
  EC50: 6.05 µM (active)
[1]
  AC50: 1.46 µM (active)

## FC(F)(F)c1ccc(Oc2ccc3cc(Br)ccc3c2)nc1
Beta-galactosidase
  IC50: > 80 µM (inactive)

## Cc1ccc2oc(=O)c3cnn(CC(=O)N4CCN(c5ccccn5)CC4)c3c2c1
[4]
  IC50: > 93.1 µM (not active)

## CCOC(=O)c1c(NS(=O)(=O)c2ccc(Br)cc2)sc2c1CCC2
Streptokinase A
  EC50: > 150 µM (not active)
[5]
  EC50: 2.1 µM (active)
Estrogen receptor beta [6]
  IC50: > 50 µM (not active)
Estrogen receptor beta [7]
  IC50: > 50 µM (not active)
Streptococcus
  EC50: 4.07 µM (active)
[8]
  AC50: > 100 µM (inactive)

## O=[N+]([O-])c1ccccc1/C=C\C=N\N1CCN(c2ccccc2)CC1
Nonstructural protein 1
  IC50: 59.2 µM (active)
[9]
  AC50: > 20 µM (inactive)

## Cn1c(C(=O)N2CCC(C(N)=O)CC2)cc2cc(Cl)ccc21
[10]
  EC50: 0.91 µM (active)

## O=C(NCc1nc2ncc(Br)cc2[nH]1)c1ccccc1
[4]
  IC50: 38.3 µM (not active)

## COCC(=O)Nc1sc2c(c1C(=O)OC)C(C(=O)OC)CC2 (centres undefined)
[11]
  IC50: > 100 µM (active)

## O=C(c1ccc(N2CCCCC2)c([N+](=O)[O-])c1)N(c1ccccn1)c1ccccn1
Prothrombin
  IC50: > 50 µM (not active)

## Cc1ccnc(NC(=O)C2CCCN(S(=O)(=O)c3c[nH]cn3)C2)c1 (centres undefined)
Prothrombin
  IC50: > 50 µM (not active)

## Cc1ccc(Cl)cc1N1CCN(C(=O)c2cc3c(O)nc4ccccc4c3n2C)CC1
Beta-galactosidase
  IC50: > 80 µM (inactive)

## CCN1[C@H](C(=O)Nc2nccs2)[C@@H](CO)[C@@H]2Cn3c(ccc(/C=C/c4ccccc4)c3=O)[C@@H]21
[1]
  AC50: 19 µM (active)

## O=C(CN1C(=O)CSC1=O)Nc1ccccc1N1CCOCC1
[11]
  IC50: > 100 µM (active)
